The source of these data is patent US7842808B2, “Anti-migraine spirocycles” (Bristol-Myers Squibb Company, priority 2002, dated 2010).

pIC50: −log10 of the molar value.

T1 sequence (Q16602 23-461): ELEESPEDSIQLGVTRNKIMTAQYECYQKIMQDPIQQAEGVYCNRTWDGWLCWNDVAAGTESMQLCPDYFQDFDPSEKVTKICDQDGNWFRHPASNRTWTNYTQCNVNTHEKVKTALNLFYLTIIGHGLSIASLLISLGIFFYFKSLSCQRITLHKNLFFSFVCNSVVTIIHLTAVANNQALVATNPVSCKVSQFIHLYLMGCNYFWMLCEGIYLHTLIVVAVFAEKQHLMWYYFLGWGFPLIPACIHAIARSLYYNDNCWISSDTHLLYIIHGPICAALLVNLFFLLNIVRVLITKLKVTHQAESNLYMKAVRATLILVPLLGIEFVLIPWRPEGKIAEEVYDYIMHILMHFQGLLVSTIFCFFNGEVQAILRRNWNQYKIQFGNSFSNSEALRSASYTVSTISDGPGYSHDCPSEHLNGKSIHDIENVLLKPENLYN
T1 sequence (O60894 27-148): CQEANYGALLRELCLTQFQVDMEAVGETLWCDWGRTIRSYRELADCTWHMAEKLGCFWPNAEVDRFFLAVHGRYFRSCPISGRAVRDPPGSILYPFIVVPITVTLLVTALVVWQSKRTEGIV

This assay has as its target T1, CGRP receptor (SK-N-MC cell membranes) (Homo sapiens, UniProt O60894+Q16602).
T1 construct: endogenous in cells; host or cells: SK-N-MC cells (membrane homogenate)
Put plainly: CGRP Binding Assay ([125I]-CGRP radioligand binding, SK-N-MC homogenate). The following applies: displacement of [125I]-CGRP, SK-N-MC homogenate; read-out: CGRP binding IC50. (In general: Loss of bound radioactivity is the signal in a displacement assay; it reports binding, not function.)
In general, pIC50 refers to the IC50 on a negative log10 scale, so that one unit is a factor of ten. Consider `COc1ccc(OC(=O)N[C@@H](CC(=O)N2CCC(N3Cc4ccccc4NC3=O)CC2)C(=O)N2CCC(N3CCCCC3)CC2)cc1` [Example 134], for which the pIC50 was 6.00 to 7.00. The result for `O=C(Nc1ccc2ccccc2c1)N[C@@H](CC(=O)N1CCC(N2Cc3ccccc3NC2=O)CC1)C(=O)N1CCC(N2CCCCC2)CC1` [Example 135] reads 6.00 to 7.00; that for `O=C(Nc1ccccc1Oc1ccccc1)N[C@@H](CC(=O)N1CCC(N2Cc3ccccc3NC2=O)CC1)C(=O)N1CCC(N2CCCCC2)CC1` [Example 136], 6.00 to 7.00; that for `O=C(Nc1cccc2ccccc12)N[C@@H](CC(=O)N1CCC(N2Cc3ccccc3NC2=O)CC1)C(=O)N1CCC(N2CCCCC2)CC1` [Example 137], 6.00 to 7.00. The result for `O=C(NCCc1ccccc1)N[C@@H](CC(=O)N1CCC(N2Cc3ccccc3NC2=O)CC1)C(=O)N1CCC(N2CCCCC2)CC1` [Example 138] reads 6.00 to 7.00; that for `Cc1cc(C)c(NC(=O)N[C@@H](CC(=O)N2CCC(N3Cc4ccccc4NC3=O)CC2)C(=O)N2CCC(N3CCCCC3)CC2)cc1C` [Example 139], 6.00 to 7.00. The result for `O=C(Nc1ccc(Cl)cc1)N[C@@H](CC(=O)N1CCC(N2Cc3ccccc3NC2=O)CC1)C(=O)N1CCC(N2CCCCC2)CC1` [Example 140] reads 7.00 to 8.00; that for `Cc1ccccc1NC(=O)N[C@@H](CC(=O)N1CCC(N2Cc3ccccc3NC2=O)CC1)C(=O)N1CCC(N2CCCCC2)CC1` [Example 141], 6.00 to 7.00. On to `CCc1cccc(NC(=O)N[C@@H](CC(=O)N2CCC(N3Cc4ccccc4NC3=O)CC2)C(=O)N2CCC(N3CCCCC3)CC2)c1` [Example 142], for which the pIC50 was 6.00 to 7.00. In the case of `O=C(Nc1ccccc1)N[C@@H](CC(=O)N1CCC(N2Cc3ccccc3NC2=O)CC1)C(=O)N1CCC(N2CCCCC2)CC1` [Example 143], the pIC50 is 6.00 to 7.00. `O=C(Nc1ccc(-c2ccccc2)cc1)N[C@@H](CC(=O)N1CCC(N2Cc3ccccc3NC2=O)CC1)C(=O)N1CCC(N2CCCCC2)CC1` [Example 144]: the pIC50 is 6.00 to 7.00. As for `O=C(NCc1ccccc1)N[C@@H](CC(=O)N1CCC(N2Cc3ccccc3NC2=O)CC1)C(=O)N1CCC(N2CCCCC2)CC1` [Example 145], the figure is 6.00 to 7.00; as for `O=C(Nc1ccc(Oc2ccccc2)cc1)N[C@@H](CC(=O)N1CCC(N2Cc3ccccc3NC2=O)CC1)C(=O)N1CCC(N2CCCCC2)CC1` [Example 146], 7.00 to 8.00. As for `CC(=O)c1cccc(NC(=O)N[C@@H](CC(=O)N2CCC(N3Cc4ccccc4NC3=O)CC2)C(=O)N2CCC(N3CCCCC3)CC2)c1` [Example 147], the figure is 6.00 to 7.00; as for `O=C(Nc1cccc(Cl)c1Cl)N[C@@H](CC(=O)N1CCC(N2Cc3ccccc3NC2=O)CC1)C(=O)N1CCC(N2CCCCC2)CC1` [Example 148], 7.00 to 8.00.

With `COc1ccccc1NC(=O)N[C@@H](CC(=O)N1CCC(N2Cc3ccccc3NC2=O)CC1)C(=O)N1CCC(N2CCCCC2)CC1` [Example 149], the pIC50 is 7.00 to 8.00.

Take `COc1cccc(NC(=O)N[C@@H](CC(=O)N2CCC(N3Cc4ccccc4NC3=O)CC2)C(=O)N2CCC(N3CCCCC3)CC2)c1` [Example 150]: the pIC50 was 7.00 to 8.00.

Consider `Cc1cccc(NC(=O)N[C@@H](CC(=O)N2CCC(N3Cc4ccccc4NC3=O)CC2)C(=O)N2CCC(N3CCCCC3)CC2)c1C` [Example 151], for which the pIC50 is 6.00 to 7.00.

As to `O=C(Nc1ccc(Cl)c(C(F)(F)F)c1)N[C@@H](CC(=O)N1CCC(N2Cc3ccccc3NC2=O)CC1)C(=O)N1CCC(N2CCCCC2)CC1` [Example 152], the pIC50 is 6.00 to 7.00. The result for `O=C(Nc1cccc(C(F)(F)F)c1)N[C@@H](CC(=O)N1CCC(N2Cc3ccccc3NC2=O)CC1)C(=O)N1CCC(N2CCCCC2)CC1` [Example 153] reads 6.00 to 7.00; that for `O=C(N[C@@H](CC(=O)N1CCC(N2Cc3ccccc3NC2=O)CC1)C(=O)N1CCC(N2CCCCC2)CC1)N[C@@H]1C[C@H]1c1ccccc1` [Example 154], 6.00 to 7.00; that for `COc1ccc(NC(=O)N[C@@H](CC(=O)N2CCC(N3Cc4ccccc4NC3=O)CC2)C(=O)N2CCC(N3CCCCC3)CC2)c(OC)c1` [Example 155], 6.00 to 7.00.

Take `O=C(Nc1ccc(F)cc1F)N[C@@H](CC(=O)N1CCC(N2Cc3ccccc3NC2=O)CC1)C(=O)N1CCC(N2CCCCC2)CC1` [Example 156]: the pIC50 is 6.00 to 7.00. The result for `Cc1ccc(C)c(NC(=O)N[C@@H](CC(=O)N2CCC(N3Cc4ccccc4NC3=O)CC2)C(=O)N2CCC(N3CCCCC3)CC2)c1` [Example 157] reads 6.00 to 7.00.

For `Cc1ccc(NC(=O)N[C@@H](CC(=O)N2CCC(N3Cc4ccccc4NC3=O)CC2)C(=O)N2CCC(N3CCCCC3)CC2)cc1C` [Example 158], the pIC50 is 7.00 to 8.00. As for `O=C(Nc1cc(Cl)cc(Cl)c1)N[C@@H](CC(=O)N1CCC(N2Cc3ccccc3NC2=O)CC1)C(=O)N1CCC(N2CCCCC2)CC1` [Example 159], the figure is 7.00 to 8.00; as for `O=C(Nc1ccc(C(F)(F)F)cc1)N[C@@H](CC(=O)N1CCC(N2Cc3ccccc3NC2=O)CC1)C(=O)N1CCC(N2CCCCC2)CC1` [Example 160], 6.00 to 7.00. As for `O=C(Nc1ccc(Cl)cc1Cl)N[C@@H](CC(=O)N1CCC(N2Cc3ccccc3NC2=O)CC1)C(=O)N1CCC(N2CCCCC2)CC1` [Example 161], the figure is 7.00 to 8.00. The result for `CC(C)c1ccc(NC(=O)N[C@@H](CC(=O)N2CCC(N3Cc4ccccc4NC3=O)CC2)C(=O)N2CCC(N3CCCCC3)CC2)cc1` [Example 162] reads 6.00 to 7.00; that for `O=C(Nc1c(F)cccc1F)N[C@@H](CC(=O)N1CCC(N2Cc3ccccc3NC2=O)CC1)C(=O)N1CCC(N2CCCCC2)CC1` [Example 163], 6.00 to 7.00. For the compound `O=C(Nc1cc(Cl)nc(Cl)c1)N[C@@H](CC(=O)N1CCC(N2Cc3ccccc3NC2=O)CC1)C(=O)N1CCC(N2CCCCC2)CC1` [Example 164], the pIC50 was 6.00 to 7.00.

With `COc1cc(NC(=O)N[C@@H](CC(=O)N2CCC(N3Cc4ccccc4NC3=O)CC2)C(=O)N2CCC(N3CCCCC3)CC2)cc(OC)c1` [Example 165], the pIC50 is 6.00 to 7.00. The result for `COC(=O)[C@H](Cc1ccccc1)NC(=O)N[C@@H](CC(=O)N1CCC(N2Cc3ccccc3NC2=O)CC1)C(=O)N1CCC(N2CCCCC2)CC1` [Example 166] reads 6.00 to 7.00; that for `O=C(Nc1cc(C(F)(F)F)ccc1Cl)N[C@@H](CC(=O)N1CCC(N2Cc3ccccc3NC2=O)CC1)C(=O)N1CCC(N2CCCCC2)CC1` [Example 167], 6.00 to 7.00; that for `O=C(Nc1ccc(F)c(F)c1F)N[C@@H](CC(=O)N1CCC(N2Cc3ccccc3NC2=O)CC1)C(=O)N1CCC(N2CCCCC2)CC1` [Example 168], 6.00 to 7.00.

Turning to `O=C(NCCc1cccs1)N[C@@H](CC(=O)N1CCC(N2Cc3ccccc3NC2=O)CC1)C(=O)N1CCC(N2CCCCC2)CC1` [Example 169], the pIC50 was 6.00 to 7.00. As for `CCOC(=O)C(C)NC(=O)N[C@@H](CC(=O)N1CCC(N2Cc3ccccc3NC2=O)CC1)C(=O)N1CCC(N2CCCCC2)CC1` (stereo partly drawn) [Example 170], the figure is 6.00 to 7.00; as for `O=C(Nc1ccccc1F)N[C@@H](CC(=O)N1CCC(N2Cc3ccccc3NC2=O)CC1)C(=O)N1CCC(N2CCCCC2)CC1` [Example 171], 7.00 to 8.00; as for `O=C(Nc1ccccc1Cl)N[C@@H](CC(=O)N1CCC(N2Cc3ccccc3NC2=O)CC1)C(=O)N1CCC(N2CCCCC2)CC1` [Example 172], 7.00 to 8.00.

With `O=C(Nc1cc(Cl)ccc1Cl)N[C@@H](CC(=O)N1CCC(N2Cc3ccccc3NC2=O)CC1)C(=O)N1CCC(N2CCCCC2)CC1` [Example 173], the pIC50 is 6.00 to 7.00. Turning to `COc1ccc(OC)c(NC(=O)N[C@@H](CC(=O)N2CCC(N3Cc4ccccc4NC3=O)CC2)C(=O)N2CCC(N3CCCCC3)CC2)c1` [Example 174], the negative-log IC50 (pIC50) is 6.00 to 7.00. For `CCOc1ccccc1NC(=O)N[C@@H](CC(=O)N1CCC(N2Cc3ccccc3NC2=O)CC1)C(=O)N1CCC(N2CCCCC2)CC1` [Example 175], the pIC50 was 6.00 to 7.00.

For the compound `O=C(Nc1cccc(Br)c1)N[C@@H](CC(=O)N1CCC(N2Cc3ccccc3NC2=O)CC1)C(=O)N1CCC(N2CCCCC2)CC1` [Example 176], the pIC50 was 7.00 to 8.00. The result for `O=C(Nc1cccc(F)c1)N[C@@H](CC(=O)N1CCC(N2Cc3ccccc3NC2=O)CC1)C(=O)N1CCC(N2CCCCC2)CC1` [Example 177] reads 7.00 to 8.00. Turning to `O=C(Nc1cccc(Cl)c1)N[C@@H](CC(=O)N1CCC(N2Cc3ccccc3NC2=O)CC1)C(=O)N1CCC(N2CCCCC2)CC1` [Example 178], the pIC50 was 7.00 to 8.00. As for `O=C(Nc1ccc(Br)cc1)N[C@@H](CC(=O)N1CCC(N2Cc3ccccc3NC2=O)CC1)C(=O)N1CCC(N2CCCCC2)CC1` [Example 179], the figure is 6.00 to 7.00. The result for `O=C(Nc1ccc(F)cc1)N[C@@H](CC(=O)N1CCC(N2Cc3ccccc3NC2=O)CC1)C(=O)N1CCC(N2CCCCC2)CC1` [Example 180] reads 6.00 to 7.00.

Turning to `COc1ccc(NC(=O)N[C@@H](CC(=O)N2CCC(N3Cc4ccccc4NC3=O)CC2)C(=O)N2CCC(N3CCCCC3)CC2)cc1` [Example 181], the pIC50 was 6.00 to 7.00. The result for `CCOC(=O)c1ccc(NC(=O)N[C@@H](CC(=O)N2CCC(N3Cc4ccccc4NC3=O)CC2)C(=O)N2CCC(N3CCCCC3)CC2)cc1` [Example 182] reads 6.00 to 7.00.

Take `CCCNC(=O)N[C@@H](CC(=O)N1CCC(N2Cc3ccccc3NC2=O)CC1)C(=O)N1CCC(N2CCCCC2)CC1` [Example 183]: the pIC50 is 6.00 to 7.00. Consider `O=C(Nc1cc(F)ccc1F)N[C@@H](CC(=O)N1CCC(N2Cc3ccccc3NC2=O)CC1)C(=O)N1CCC(N2CCCCC2)CC1` [Example 184], for which the pIC50 is 7.00 to 8.00. The result for `Cc1ccc(NC(=O)N[C@@H](CC(=O)N2CCC(N3Cc4ccccc4NC3=O)CC2)C(=O)N2CCC(N3CCCCC3)CC2)c(C)c1` [Example 185] reads 6.00 to 7.00; that for `Cc1ccc(NC(=O)N[C@@H](CC(=O)N2CCC(N3Cc4ccccc4NC3=O)CC2)C(=O)N2CCC(N3CCCCC3)CC2)cc1Cl` [Example 186], 6.00 to 7.00; that for `COc1ccc(Cl)cc1NC(=O)N[C@@H](CC(=O)N1CCC(N2Cc3ccccc3NC2=O)CC1)C(=O)N1CCC(N2CCCCC2)CC1` [Example 187], 6.00 to 7.00.
